From PubChem BioAssay (NCI)
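Following 48 hours of exposure in 96-well plates, responses at five concentrations were used to interpolate endpoints linearly. TGI denotes the concentration required for complete inhibition of growth.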

Tests used:
Assay in all cases: growth of human tumour cells (NCI), 48 h
786-0 renal = tested on: 786-0 renal
A498 renal = tested on: A498 renal
A549 NSCLC = tested on: A549 NSCLC
ACHN renal = tested on: ACHN renal
BT-549 breast = tested on: BT-549 breast
CAKI-1 renal = tested on: CAKI-1 renal
CCRF-CEM leukemia = tested on: CCRF-CEM leukemia
COLO 205 colon = tested on: COLO 205 colon
DU-145 prostate = tested on: DU-145 prostate
EKVX NSCLC = tested on: EKVX NSCLC
HCC-2998 colon = tested on: HCC-2998 colon
HCT-116 colon = tested on: HCT-116 colon
HCT-15 colon = tested on: HCT-15 colon
HL-60(TB) leukemia = tested on: HL-60(TB) leukemia
HOP-62 NSCLC = tested on: HOP-62 NSCLC
HOP-92 NSCLC = tested on: HOP-92 NSCLC
HS 578T breast = tested on: HS 578T breast
HT29 colon = tested on: HT29 colon
IGROV1 ovarian = tested on: IGROV1 ovarian
K-562 leukemia = tested on: K-562 leukemia
KM12 colon = tested on: KM12 colon
LOX IMVI melanoma = tested on: LOX IMVI melanoma
M14 melanoma = tested on: M14 melanoma
MALME-3M melanoma = tested on: MALME-3M melanoma
MCF7 breast = tested on: MCF7 breast
MDA-MB-231 breast = tested on: MDA-MB-231 breast
MDA-MB-435 = tested on: MDA-MB-435
MOLT-4 leukemia = tested on: MOLT-4 leukemia
NCI-H226 lung = tested on: NCI-H226 lung
NCI-H23 lung = tested on: NCI-H23 lung
NCI-H460 lung = tested on: NCI-H460 lung
NCI-H522 lung = tested on: NCI-H522 lung
NCI/ADR-RES ovarian = tested on: NCI/ADR-RES ovarian
OVCAR-3 ovarian = tested on: OVCAR-3 ovarian
OVCAR-4 ovarian = tested on: OVCAR-4 ovarian
OVCAR-5 ovarian = tested on: OVCAR-5 ovarian
OVCAR-8 ovarian = tested on: OVCAR-8 ovarian
PC-3 prostate = tested on: PC-3 prostate
RPMI-8226 leukemia = tested on: RPMI-8226 leukemia
RXF 393 renal = tested on: RXF 393 renal
SF-268 CNS = tested on: SF-268 CNS
SF-295 CNS = tested on: SF-295 CNS
SF-539 CNS = tested on: SF-539 CNS
SK-MEL-2 melanoma = tested on: SK-MEL-2 melanoma
SK-MEL-28 melanoma = tested on: SK-MEL-28 melanoma
SK-MEL-5 melanoma = tested on: SK-MEL-5 melanoma
SK-OV-3 ovarian = tested on: SK-OV-3 ovarian
SN12C renal = tested on: SN12C renal
SNB-19 CNS = tested on: SNB-19 CNS
SNB-75 CNS = tested on: SNB-75 CNS
SR leukemia = tested on: SR leukemia
SW-620 colon = tested on: SW-620 colon
T-47D breast = tested on: T-47D breast
TK-10 renal = tested on: TK-10 renal
U251 CNS = tested on: U251 CNS
UACC-257 melanoma = tested on: UACC-257 melanoma
UACC-62 melanoma = tested on: UACC-62 melanoma
UO-31 renal = tested on: UO-31 renal

In the case of `CCCc1cn2c(/C=N/N=C(N)N)c(-c3c(OC)ccc(OC)c3[N+](=O)[O-])nc2s1`, the TGI (786-0 renal) was 28.1 µM, the TGI (A498 renal) was 44.6 µM and the TGI (A549 NSCLC) was 51.3 µM. For the same molecule, the TGI (ACHN renal) was 35.6 µM, the TGI (BT-549 breast) was 35.6 µM and the TGI (CAKI-1 renal) was 30.6 µM. It also gave a TGI (CCRF-CEM leukemia) of 8.43 µM, a TGI (COLO 205 colon) of 6.42 µM and a TGI (DU-145 prostate) of 35.6 µM. It also gave a TGI (EKVX NSCLC) of 44.8 µM, a TGI (HCC-2998 colon) of 4.59 µM and a TGI (HCT-116 colon) of 22.2 µM. It also gave a TGI (HCT-15 colon) of 37 µM, a TGI (HL-60(TB) leukemia) of 27.6 µM and a TGI (HOP-62 NSCLC) of 31.1 µM. The TGI (HOP-92 NSCLC) was 47 µM, the TGI (HS 578T breast) was 41.9 µM and the TGI (HT29 colon) was > 38.5 µM. The TGI (IGROV1 ovarian) was 34.8 µM, the TGI (K-562 leukemia) was 11.5 µM and the TGI (KM12 colon) was 11.6 µM. It also gave a TGI (LOX IMVI melanoma) of 9.13 µM, a TGI (M14 melanoma) of 21.3 µM and a TGI (MALME-3M melanoma) of 30 µM. It also gave a TGI (MCF7 breast) of 20.8 µM, a TGI (MDA-MB-231 breast) of 16.2 µM and a TGI (MDA-MB-435) of 19.9 µM. The TGI (MOLT-4 leukemia) was 4.19 µM, the TGI (NCI-H226 lung) was 38.3 µM and the TGI (NCI-H23 lung) was 26.1 µM. It also gave a TGI (NCI-H460 lung) of 41.6 µM, a TGI (NCI-H522 lung) of 34.2 µM and a TGI (NCI/ADR-RES ovarian) of 64.6 µM. It also gave a TGI (OVCAR-3 ovarian) of 18.2 µM, a TGI (OVCAR-4 ovarian) of 66.2 µM and a TGI (OVCAR-5 ovarian) of 34.5 µM. For the same molecule, the TGI (OVCAR-8 ovarian) was 47.3 µM, the TGI (PC-3 prostate) was 26.5 µM and the TGI (RPMI-8226 leukemia) was 8.7 µM. It also gave a TGI (RXF 393 renal) of 41.2 µM, a TGI (SF-268 CNS) of 47.2 µM and a TGI (SF-295 CNS) of 35.7 µM. The TGI (SF-539 CNS) was 36.9 µM, the TGI (SK-MEL-2 melanoma) was 46.5 µM and the TGI (SK-MEL-28 melanoma) was 19.4 µM. The TGI (SK-MEL-5 melanoma) was 32.3 µM, the TGI (SK-OV-3 ovarian) was 43.3 µM and the TGI (SN12C renal) was 31.7 µM. The TGI (SNB-19 CNS) was 49.9 µM, the TGI (SNB-75 CNS) was > 59.1 µM and the TGI (SR leukemia) was 4.34 µM. For the same molecule, the TGI (SW-620 colon) was 32.9 µM, the TGI (T-47D breast) was 24.3 µM and the TGI (TK-10 renal) was 41 µM. For the same molecule, the TGI (U251 CNS) was 18.7 µM, the TGI (UACC-257 melanoma) was 28.4 µM and the TGI (UACC-62 melanoma) was 25.4 µM. The TGI (UO-31 renal) was 45 µM.
